Data from article PMC3006138, “Fexinidazole – A New Oral Nitroimidazole Drug Candidate Entering Clinical Development for the Treatment of Sleeping Sickness” (PLoS Neglected Tropical Diseases, 2010).

Assay: Hepatocyte intrinsic clearance and metabolite profile
Type: in vitro ADME, human
Conditions: human, cryopreserved pooled hepatocytes, 1 µM
Procedure: Fexinidazole was incubated with cryopreserved hepatocytes from male CD-1 mice, male Sprague Dawley rats, male beagle dogs, male cynomolgus monkeys, and from pooled white or African-American human donor samples (purchased commercially), at concentrations of 1 µM and 10 µM. […] The incubated samples were analyzed by LC-MS after extraction into acetonitrile.
A quality control analysis of fexinidazole was performed via 1H-NMR in DMSO and LC- […]
provided by the Swiss Tropical Institute (Basel, Switzerland).
Reagents and solvents were of analytical grade and obtained from Sigma-Aldrich (St. Louis, […]
Cryopreserved hepatocytes from the male CD1 mouse, lot CSI; male Sprague Dawley rat, lot LPL; male beagle dog, lot BWX; male cynomolgus monkey, lot EHH; and pooled human samples, lot MJI, were purchased from In Vitro Technologies Inc (Baltimore, Maryland, […]
5.4. In vitro Incubations
On the day of the experiment a 10 mM stock solution of fexinidazole in DMSO was prepared and, within 3 hours, aliquots of this freshly prepared solution, after suitable dilution, were added to the incubation matrix, to reach fexinidazole final concentrations of 1 and 10 µM. The final percentage of DMSO was 0.01% in the incubation samples for the […]
On the day of experiment, the cryopreserved hepatocytes were thawed following the detailed instructions provided by the supplier.
The number of viable cells was determined using a Trypan Blue exclusion method.
5.4.1. Intrinsic Clearance Study […]
µM with mouse, rat, dog, monkey and human hepatocytes (300000 cells/mL for the mouse and 1 million cells/mL for the other species) in a final incubation volume of 0.75 mL […]
Incubations were performed in duplicate in a 48-well plate under shaking. Sampling was performed using an automatic liquid handling system (Multiprobe II EX, Packard). At 0, 1, 5, 10, 15, 20, 30, 60 and 120 minutes, 50 µL aliquots of the incubates were taken, then 80 µL of ice-cold acetonitrile and 20 µL of 1 µM warfarin in acetonitrile (internal standard) were added, and samples centrifuged at 2000 rpm for 20 min. The supernatant was analyzed by LC-MS/MS. […]
the medium alone at t = 0 and 120 minutes.
For the determination of phase I and phase II activity of hepatocytes, 7-ethoxycoumarin (7-EC) 1 µM, and 7-hydroxycoumarin (7-HC) 30 µM were used as positive controls and incubated under the same conditions as fexinidazole. Aliquots of incubates were taken at 0, 10, 20, 30, 60 and 120 minutes and processed as fexinidazole samples.
5.4.2. Metabolite Profile Study
For metabolite profiling, fexinidazole was incubated at a concentration of 10 µM with mouse, rat, dog, monkey and human hepatocytes (300000 cells/mL for the mouse and 1 million cells/mL for the other species) in a final incubation volume of 2 mL Leibovitz L-15 […]
Aliquots of the incubation samples were taken at t = 0, 30 and 120 minutes; the metabolism was stopped by the addition of an equal volume of cold acetonitrile and the samples centrifuged at 1500 rpm for 20 min. The supernatant was stored at -20°C until analysis. Control incubations were performed with the compound in the medium alone […]
5.5. Analysis of Samples for Intrinsic Clearance Determination
The analysis of the samples for intrinsic clearance determination was performed by an LC-MS/MS method, using the following conditions:
HPLC Equipment and Conditions
HPLC system Agilent 1100 binary pump (Agilent, Palo Alto, USA)
Autosampler CTC Pal (Alfatech, San Jose, USA)
Analytical column Guard Column SB-C8 4.6 x 12.5 mm, 5 µm (Zorbax)
Column temperature ambient
Mobile phase A 10 mM ammonium formate pH 4.0: acetonitrile (95:5, v:v)
Mobile phase B 10 mM ammonium formate pH 4.0: acetonitrile (5:95, v:v) […]
Gradient conditions Step Total time (min) flow (µL/min) %A % B […]
MS Equipment and Conditions
Mass spectrometer API 4000 Triple Quadrupole (MDS-Sciex, Toronto, […]
Source Turbo Ion Spray (TIS)
Ion mode Positive for fexinidazole and 7-EC.
Negative for 7-HC, 7-HC sulphate and 7-HC glucuronide.

CSc1ccc(OCc2ncc([N+](=O)[O-])n2C)cc1 [Fexinidazole, 1-methyl-2-((p-(methylthio)phenoxy)methyl)-5-nitroimidazole]
half-life at 1 µM: 13 min
CLint scaled at 1 µM (read-out: CLint in vitro): 124 mL/min/kg
hepatocyte CLint at 1 µM (read-out: CLint in vitro): 51.9 µL/min/1e6 cells
